Source: patent US20210300939A1, “Single Molecule Compounds Providing Multi-Target Inhibition of BTK and Other Proteins and Methods of Use Thereof” (SignalRx Pharmaceuticals, Inc., priority 2018, published 2021)

How the values were obtained:
[1] = biological target: T1, BRD4-1 (binding domain 1 of BRD4) (Homo sapiens, UniProt O60885); test: BRD4 binding domain 1 inhibition (Reaction Biology Corp.); conditions: 10-point curve; read-out: Target IC50 BRD4-1
T1 construct: purchased Reaction Biology Corp., Malvern, Pa; (contract assay)
Protocol: (§1) The BTK, PI3K, and/or bromodomain inhibitory activity of a compound of the invention can be determined by methods known to the skilled artisan, or by procuring relevant analysis by a commercial vendor offering such services. […] In vivo, PI3K inhibition can be determined from target tissue biopsies by standard tissue processing in which cells are disrupted and Western Blot analysis is performed to determine the presence or absence of pAKT (substrate of PI3K) relative to a control sample. PI3K inhibition assays and BTK inhibition assays are known in the art and can be procured commercially through vendors such as Reaction Biology (Malvern, Pa.). The activity of a compound of the invention as an inhibitor of a bromodomain-containing protein, such as a BET protein, including BRD2, BRD3, BRD4, and/or BRDT, or an isoform or mutant thereof, may be determined in vitro, in vivo, or in a cell line. In vitro assays include assays that determine inhibition of bromodomain-containing proteins. Alternatively, inhibitor binding may be determined by running a competition experiment where a provided compound is incubated with a bromodomain-containing protein, such as a BET protein bound to known ligands, labeled or unlabeled. In vitro bromodomain inhibition assays can be performed using Alpha Screen Technology (Perkin Elmer Life and Analytical Sciences, Shelton, Conn.). In vivo bromodomain inhibition can be determined indirectly by evaluating the amount of a protein whose gene transcription is influenced or controlled by the bromodomain protein, for example, MYCN protein transcription is controlled by BRD4 (J. E. Delmore et al., Cell 2011, 146, 904-917; A. Puissant, Cancer Discov. 2013, 3, 308-323).
(§2) Compounds of the invention were analyzed for their ability to inhibit target proteins in vitro. PI3K alpha, gamma, and delta inhibition activity was determined by Thermo Fisher Scientific-Biosciences Life Sciences Solutions, Madison, Wis. The bromodomain protein inhibition (binding domain 1 and 2 of BRD4) was determined at Reaction Biology Corp., Malvern, Pa. BTK inhibition was performed by Reaction Biology Corp., Malvern, Pa.
(§3) Additional information regarding the testing procedures is available at each company's website on the internet. The IC50 data was calculated from a 10-point curve by the vendor and is compiled in ranges in the Table 6 below.

[2] = biological target: T2, BRD4-2 (binding domain 2 of BRD4) (Homo sapiens, UniProt O60885); test: BRD4 binding domain 2 inhibition (Reaction Biology Corp.); conditions: 10-point curve; read-out: Target IC50 BRD4-2
T2 construct: purchased Reaction Biology Corp., Malvern, Pa; (contract assay)
Protocol: as §1, §2, §3

[3] = biological target: T3, PI3K δ (Homo sapiens, UniProt O00329); test: PI3K delta inhibition (Thermo Fisher Scientific); type: biochemical; conditions: 10-point curve; read-out: Target IC50 PI3K δ
T3 construct: purchased Thermo Fisher Scientific-Biosciences Life Sciences Solutions, Madison, Wis; (contract assay)
Protocol: as §1, §2, §3

[4] = biological target: T4, PI3K γ (Homo sapiens, UniProt P48736); test: PI3K gamma inhibition (Thermo Fisher Scientific); type: biochemical; conditions: 10-point curve; read-out: Target IC50 PI3K γ
T4 construct: purchased Thermo Fisher Scientific-Biosciences Life Sciences Solutions, Madison, Wis; (contract assay)
Protocol: as §1, §2, §3

[5] = biological target: T5, BTK (WT) (Homo sapiens, UniProt Q06187); test: native BTK inhibition (Reaction Biology Corp.); type: biochemical; conditions: 10-point curve; read-out: Target IC50 BTK (WT)
T5 construct: purchased Reaction Biology Corp., Malvern, Pa; (contract assay)
Protocol: as §2, §3

[6] = biological target: T6, BTK (C481S) (Homo sapiens, UniProt Q06187, C481S); test: BTK cysteine mutant C481S inhibition (Reaction Biology Corp.); type: biochemical; conditions: for IC50: 10-point curve, read-out: Target IC50 BTK (C481S); for Ratio C481S/WT: ratio of the BTK IC50 values, C481S over wild-type
T6 construct: purchased Reaction Biology Corp., Malvern, Pa; (contract assay)
Protocol: as §2, §3

[7] = test system: JeKo-1 cells; test: Cell viability (Celltiter-Glo), JeKo-1; type: cell-based; conditions: Homo sapiens, 48 hours
Protocol: (§4) The results of this experiment are shown in FIGS. 1A-1C, and in Table 7 below. Human mantle cell lymphoma cell lines were grown in 96 well plates with 5000 cells per well in RPMI 1640 media supplemented with 10% fetal bovine serum. Cells were treated for 48 hours with a concentration range of each compound from 50 nM to 50 uM. Cell viability a measure of viable cell numbers was determined using a Celltiter-Glo^R reagent for each concentration in order to construct an IC50 curve for each compound in each cell line.

[8] = test system: Mino cells; test: Cell viability (Celltiter-Glo), Mino; type: cell-based; conditions: Homo sapiens, 48 hours
Protocol: as §4

[9] = test system: Granta519 cells; test: Cell viability (Celltiter-Glo), Granta519; type: cell-based; conditions: Homo sapiens, Granta-519, 48 hours
Protocol: as §4

[10] = test system: Human mantle cell lymphoma cell lines; test: Cell viability, mantle cell lymphoma cell lines (overall conclusion); type: cell-based; conditions: in vitro, 48 hours
Protocol: as §4

[11] = biological target: T7, PI3K α (Homo sapiens, UniProt P42336); test: PI3K alpha inhibition (Thermo Fisher Scientific); type: biochemical; conditions: 10-point curve; read-out: Target IC50 PI3K α
T7 construct: purchased Thermo Fisher Scientific-Biosciences Life Sciences Solutions, Madison, Wis; (contract assay)
Protocol: as §1, §2, §3

[12] = test system: JeKo-1 cells; test: Percentage cells in apoptosis, JeKo-1; type: cell-based, human
Text: (§5) Additionally apoptosis data was obtained in both JeKo and Mino cells for compound 7.

[13] = test system: Mino cells; test: Percentage cells in apoptosis, Mino; type: cell-based, human; conditions: 24-hour
Text: as §5

T5 sequence (Q06187 whole entry): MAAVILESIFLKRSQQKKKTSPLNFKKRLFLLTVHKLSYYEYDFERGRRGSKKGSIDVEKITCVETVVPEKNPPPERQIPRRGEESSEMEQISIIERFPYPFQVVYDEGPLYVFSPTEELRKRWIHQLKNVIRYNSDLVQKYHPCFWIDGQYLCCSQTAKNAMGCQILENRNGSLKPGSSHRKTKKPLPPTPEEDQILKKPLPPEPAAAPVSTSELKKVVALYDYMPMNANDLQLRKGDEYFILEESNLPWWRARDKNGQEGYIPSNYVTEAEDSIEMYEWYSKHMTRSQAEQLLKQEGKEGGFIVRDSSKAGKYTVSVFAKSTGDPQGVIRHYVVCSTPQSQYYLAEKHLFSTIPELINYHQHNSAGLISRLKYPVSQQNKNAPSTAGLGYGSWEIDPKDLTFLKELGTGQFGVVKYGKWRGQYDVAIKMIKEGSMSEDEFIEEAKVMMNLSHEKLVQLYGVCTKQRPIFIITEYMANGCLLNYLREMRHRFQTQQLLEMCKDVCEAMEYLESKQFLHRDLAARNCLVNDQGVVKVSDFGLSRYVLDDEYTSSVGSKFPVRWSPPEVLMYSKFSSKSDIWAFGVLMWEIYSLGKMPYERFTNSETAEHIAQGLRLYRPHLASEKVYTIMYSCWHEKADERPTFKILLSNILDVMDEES
T7 sequence (P42336 whole entry): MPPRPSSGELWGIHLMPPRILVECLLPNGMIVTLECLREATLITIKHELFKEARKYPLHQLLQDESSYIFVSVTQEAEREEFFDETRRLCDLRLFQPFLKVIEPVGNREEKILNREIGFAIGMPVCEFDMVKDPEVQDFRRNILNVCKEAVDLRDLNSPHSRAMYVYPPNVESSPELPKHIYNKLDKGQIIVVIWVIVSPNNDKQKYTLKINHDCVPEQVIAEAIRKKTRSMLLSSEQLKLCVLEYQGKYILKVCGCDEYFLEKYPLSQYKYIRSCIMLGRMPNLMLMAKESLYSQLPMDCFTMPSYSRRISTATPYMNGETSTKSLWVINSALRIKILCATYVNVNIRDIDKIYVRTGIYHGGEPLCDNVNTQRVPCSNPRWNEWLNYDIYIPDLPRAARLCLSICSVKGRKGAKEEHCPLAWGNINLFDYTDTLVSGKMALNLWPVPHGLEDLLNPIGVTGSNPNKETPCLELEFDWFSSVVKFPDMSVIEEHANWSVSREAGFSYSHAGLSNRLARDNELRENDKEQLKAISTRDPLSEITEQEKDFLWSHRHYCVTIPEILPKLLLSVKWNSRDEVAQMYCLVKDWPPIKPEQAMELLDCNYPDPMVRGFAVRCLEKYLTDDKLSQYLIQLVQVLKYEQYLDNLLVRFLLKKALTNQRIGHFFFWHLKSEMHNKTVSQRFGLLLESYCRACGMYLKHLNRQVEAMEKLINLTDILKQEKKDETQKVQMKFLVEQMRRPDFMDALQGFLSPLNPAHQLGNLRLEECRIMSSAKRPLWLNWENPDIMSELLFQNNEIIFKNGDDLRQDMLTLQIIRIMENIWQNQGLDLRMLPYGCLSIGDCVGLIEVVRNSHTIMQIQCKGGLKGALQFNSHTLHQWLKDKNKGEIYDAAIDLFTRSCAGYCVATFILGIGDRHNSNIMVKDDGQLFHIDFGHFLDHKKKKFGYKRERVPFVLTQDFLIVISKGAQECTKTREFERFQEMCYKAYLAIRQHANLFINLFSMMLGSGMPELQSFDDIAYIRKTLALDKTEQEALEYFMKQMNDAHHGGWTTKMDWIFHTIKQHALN
T7 sequence (P27986 whole entry partner): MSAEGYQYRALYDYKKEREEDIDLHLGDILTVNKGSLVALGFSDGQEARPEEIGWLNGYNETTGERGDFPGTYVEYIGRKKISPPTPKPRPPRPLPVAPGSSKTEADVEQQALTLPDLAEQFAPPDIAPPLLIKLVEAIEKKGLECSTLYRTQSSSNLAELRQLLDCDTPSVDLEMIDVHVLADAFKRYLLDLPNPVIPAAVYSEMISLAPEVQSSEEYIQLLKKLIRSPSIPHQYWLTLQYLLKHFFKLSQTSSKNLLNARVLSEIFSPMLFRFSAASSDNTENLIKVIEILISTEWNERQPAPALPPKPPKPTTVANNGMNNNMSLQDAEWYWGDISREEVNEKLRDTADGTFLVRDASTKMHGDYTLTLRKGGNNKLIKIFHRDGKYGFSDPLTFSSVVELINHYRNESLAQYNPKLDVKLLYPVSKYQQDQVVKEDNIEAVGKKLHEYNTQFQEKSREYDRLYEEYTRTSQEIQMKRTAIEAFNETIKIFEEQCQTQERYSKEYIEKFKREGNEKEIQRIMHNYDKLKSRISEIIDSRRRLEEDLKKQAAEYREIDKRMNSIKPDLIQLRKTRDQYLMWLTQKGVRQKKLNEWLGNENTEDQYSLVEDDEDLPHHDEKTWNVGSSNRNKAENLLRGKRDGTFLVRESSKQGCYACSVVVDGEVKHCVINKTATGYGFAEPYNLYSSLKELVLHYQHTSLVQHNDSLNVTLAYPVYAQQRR
T3 sequence (O00329 whole entry): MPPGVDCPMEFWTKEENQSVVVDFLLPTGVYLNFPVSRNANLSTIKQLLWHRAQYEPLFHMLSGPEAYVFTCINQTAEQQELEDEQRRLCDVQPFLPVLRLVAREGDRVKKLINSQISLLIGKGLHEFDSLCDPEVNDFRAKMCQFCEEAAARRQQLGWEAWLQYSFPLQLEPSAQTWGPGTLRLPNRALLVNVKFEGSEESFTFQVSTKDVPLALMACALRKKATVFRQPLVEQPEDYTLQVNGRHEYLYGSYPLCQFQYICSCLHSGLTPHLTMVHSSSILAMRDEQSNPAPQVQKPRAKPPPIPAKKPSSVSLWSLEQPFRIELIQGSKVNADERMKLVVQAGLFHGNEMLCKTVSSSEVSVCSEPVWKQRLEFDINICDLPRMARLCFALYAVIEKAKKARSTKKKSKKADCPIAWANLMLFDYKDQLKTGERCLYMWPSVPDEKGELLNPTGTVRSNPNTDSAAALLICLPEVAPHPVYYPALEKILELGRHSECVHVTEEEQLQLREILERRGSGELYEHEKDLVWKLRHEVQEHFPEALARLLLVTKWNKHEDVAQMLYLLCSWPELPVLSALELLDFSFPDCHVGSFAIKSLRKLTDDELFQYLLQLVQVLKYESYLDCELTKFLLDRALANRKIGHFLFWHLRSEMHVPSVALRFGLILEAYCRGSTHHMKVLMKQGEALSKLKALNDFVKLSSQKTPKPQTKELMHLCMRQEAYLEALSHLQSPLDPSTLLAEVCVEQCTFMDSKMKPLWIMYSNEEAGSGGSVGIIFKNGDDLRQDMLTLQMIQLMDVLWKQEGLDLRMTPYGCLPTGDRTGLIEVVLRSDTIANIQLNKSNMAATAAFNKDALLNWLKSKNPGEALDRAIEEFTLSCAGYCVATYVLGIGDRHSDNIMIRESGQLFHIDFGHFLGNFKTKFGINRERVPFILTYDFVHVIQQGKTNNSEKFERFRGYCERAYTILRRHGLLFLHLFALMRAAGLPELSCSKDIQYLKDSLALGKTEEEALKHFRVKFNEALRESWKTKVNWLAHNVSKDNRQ
T3 sequence (P27986 whole entry partner): as the sequence (P27986 whole entry partner) above
T4 sequence (P48736 whole entry): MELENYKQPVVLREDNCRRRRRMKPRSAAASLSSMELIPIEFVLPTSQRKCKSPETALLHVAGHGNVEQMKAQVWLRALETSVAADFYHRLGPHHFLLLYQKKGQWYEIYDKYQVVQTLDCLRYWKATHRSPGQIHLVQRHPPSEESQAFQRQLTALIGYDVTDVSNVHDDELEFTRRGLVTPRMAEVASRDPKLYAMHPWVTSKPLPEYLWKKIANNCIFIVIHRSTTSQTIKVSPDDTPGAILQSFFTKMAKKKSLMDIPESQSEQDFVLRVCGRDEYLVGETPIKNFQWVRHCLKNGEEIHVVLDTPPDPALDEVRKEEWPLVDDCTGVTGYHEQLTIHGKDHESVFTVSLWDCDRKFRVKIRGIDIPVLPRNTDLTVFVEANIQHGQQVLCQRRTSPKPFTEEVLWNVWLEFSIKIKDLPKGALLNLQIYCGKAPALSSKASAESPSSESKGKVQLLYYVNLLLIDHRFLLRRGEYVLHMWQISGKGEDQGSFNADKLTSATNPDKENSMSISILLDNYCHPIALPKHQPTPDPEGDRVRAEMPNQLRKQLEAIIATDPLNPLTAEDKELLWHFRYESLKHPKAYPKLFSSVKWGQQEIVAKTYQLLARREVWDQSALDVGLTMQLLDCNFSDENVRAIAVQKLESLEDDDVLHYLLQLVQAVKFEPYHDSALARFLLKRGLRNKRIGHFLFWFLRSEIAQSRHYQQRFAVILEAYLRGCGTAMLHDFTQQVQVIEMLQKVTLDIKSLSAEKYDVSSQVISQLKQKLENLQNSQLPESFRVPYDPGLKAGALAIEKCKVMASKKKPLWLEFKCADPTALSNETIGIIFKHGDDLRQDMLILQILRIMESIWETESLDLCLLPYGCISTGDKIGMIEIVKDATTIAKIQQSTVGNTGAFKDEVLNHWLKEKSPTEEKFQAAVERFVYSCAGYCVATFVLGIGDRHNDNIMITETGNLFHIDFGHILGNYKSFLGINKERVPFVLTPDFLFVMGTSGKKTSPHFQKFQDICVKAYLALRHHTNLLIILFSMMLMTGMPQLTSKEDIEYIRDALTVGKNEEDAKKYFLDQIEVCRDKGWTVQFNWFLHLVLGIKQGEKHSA
T6 sequence (Q06187 whole entry C481S): as the sequence (Q06187 whole entry) above, with C481S counted along it

IC50 [1] [µM]	IC50 [2] [µM]	IC50 [3] [µM]	IC50 [4] [µM]	IC50 [5] [µM]	IC50 [6] [µM]	IC50 [11] [µM]	Ratio C481S/WT [6]	Compound	further results
< 1	1 to 10	< 1	< 1	10 to 30	10 to 30	–	–	O=c1cc(N2CCOCC2)oc2c(-c3ccc4c(c3)OCCO4)csc12 [Compound 0, reference compound]	IC50 [7]: < 1 µM; IC50 [8]: < 1 µM; IC50 [9]: 1 to 10 µM; Potency in reducing mantle cell lymphoma viability as compared to Ibrutinib [10]: markedly more potent
10 to 30	1 to 10	< 1	< 1	1 to 10	10 to 30	< 1	8.1	C=CC(=O)Nc1cccc(-c2csc3c(=S)cc(N4CCOCC4)oc23)c1 [Compound 2, 1-[m-(5-Morpholino-7-thioxo-4-oxa-1-thia-3-indenyl)phenylamino]-2-propen-1-one]	–
< 1	1 to 10	> 50	> 50	1 to 10	30 to 50	> 50	24.5	C=CC(=O)Nc1cccc(-c2csc3c(=O)cc(N4CCNCC4)oc23)c1.O=C(O)C(F)(F)F [Compound 3, 1-{m-[7-Oxo-5-(1-piperazinyl)-4-oxa-1-thia-3-indenyl]phenylamino}-2-propen-1-one]	–
< 1	1 to 10	1 to 10	10 to 30	< 1	10 to 30	10 to 30	212	C=CC(=O)N1CCOc2ccc(-c3csc4c(=O)cc(N5CCN(C(=O)OC(C)(C)C)CC5)oc34)cc21 [Compound 4, tert-butyl 4-[3-(4-acryloyl-1-oxa-4-aza-3,4-dihydro-2H-naphth-6-yl)-7-oxo-4-oxa-1-thia-5-indenyl]-1-piperazinecarboxylate]	–
< 1	1 to 10	1 to 10	> 50	< 1	10 to 30	10 to 30	52.0	C=CC(=O)N1CCOc2ccc(-c3csc4c(=O)cc(N5CCNCC5)oc34)cc21 [Compound 5, 1-{7-[7-Oxo-5-(1-piperazinyl)-4-oxa-1-thia-3-indenyl]-4-oxa-1-aza-2,3-dihydro-1H-naphth-1-yl}-2-propen-1-one]	–
1 to 10	10 to 30	1 to 10	> 50	< 1	1 to 10	30 to 50	11.2	C=CC(=O)N1CCOc2ccc(-c3csc4c(=O)cc(N5CCN(C)CC5)oc34)cc21 [Compound 6, 1-(7[5-(4-Methyl-1-piperazinyl)-7-oxo-4-oxa-1-thia-3-indenyl]-4-oxa-1-aza-2,3-dihydro-1H-naphth-1-yl]-2-propen-1-one]	–
< 1	1 to 10	< 1	< 1	< 1	> 50	< 1	>60	C=CC(=O)Nc1cc(OC)cc(-c2csc3c(=O)cc(N4CCOCC4)oc23)c1 [Compound 8, 1-[5-Methoxy-3-(5-morpholino-7-oxo-4-oxa-1-thia-3-indenyl)phenylamino]-2-propen-1-one]	–
1 to 10	10 to 30	1 to 10	10 to 30	–	–	1 to 10	–	CCCCC/C=C/C(=O)Nc1cccc(-c2csc3c(=O)cc(N4CCOCC4)oc23)c1 [Compound 10, (E)-1-[m-(5-Morpholino-7-oxo-4-oxa-1-thia-3-indenyl)phenylamino]-2-octen-1-one]	–
1 to 10	< 1	< 1	1 to 10	10 to 30	10 to 30	< 1	1.3	N#C/C(=C\C1CC1)C(=O)Nc1cccc(-c2csc3c(=O)cc(N4CCOCC4)oc23)c1 [Compound 11, (E)-3-Cyclopropyl-2-{[m-(5-morpholino-7-oxo-4-oxa-1-thia-3-indenyl)phenylamino]carbonyl}acrylonitrile]	–
< 1	< 1	< 1	< 1	1 to 10	10 to 30	< 1	15.8	CC#CC(=O)Nc1cccc(-c2csc3c(=O)cc(N4CCOCC4)oc23)c1 [Compound 12, 1-[m-(5-Morpholino-7-oxo-4-oxa-1-thia-3-indenyl)phenylamino]-2-butyn-1-one]	–
< 1	< 1	< 1	< 1	< 1	< 1	< 1	1402	C=CS(=O)(=O)N1CCOc2ccc(-c3csc4c(=O)cc(N5CCOCC5)oc34)cc21 [Compound 21, 5-Morpholino-3-[4-(vinylsulfonyl)-1-oxa-4-aza-3,4-dihydro-2H-naphth-6-yl]-4-oxa-1-thia-7-indenone]	–
< 1	< 1	< 1	< 1	< 1	< 1	< 1	>20K	C=CS(=O)(=O)Nc1cccc(-c2csc3c(=O)cc(N4CCOCC4)oc23)c1 [II-18, 5-morpholino-3-[m-(vinylsulfonylamino)phenyl]-4-oxa-1-thia-7-indenone]	–
–	–	–	–	–	–	–	–	C=CC(=O)N1CCC[C@@H](n2nc(-c3ccc(Oc4ccccc4)cc3)c3c(N)ncnc32)C1 [Ibrutinib]	IC50 [7]: > 50 µM; IC50 [8]: 1 to 10 µM; IC50 [9]: 10 to 30 µM; Percentage cells in apoptosis ([12]; JeKo-1, 24-hour, Early): + (less than 5%); Percentage cells in apoptosis ([12]; JeKo-1, 24-hour, Late): + (less than 5%); Percentage cells in apoptosis ([12]; JeKo-1, 24-hour, Total): + (less than 5%); Percentage cells in apoptosis ([12]; JeKo-1, 48-hour, Early): + (less than 5%); Percentage cells in apoptosis ([12]; JeKo-1, 48-hour, Late): + (less than 5%); Percentage cells in apoptosis ([12]; JeKo-1, 48-hour, Total): ++ (between 5% and 10%); Percentage cells in apoptosis ([13]; Early): ++ (between 5% and 10%); Percentage cells in apoptosis ([13]; Late): + (less than 5%); Percentage cells in apoptosis ([13]; Total): +++ (between 10% and 30%)
–	–	–	–	–	–	–	–	CN[C@@H]1C[C@H]2O[C@@](C)([C@@H]1OC)n1c3ccccc3c3c4c(c5c6ccccc6n2c5c31)C(=O)NC4 [Staurosporine]	Percentage cells in apoptosis ([12]; JeKo-1, 24-hour, Early): ++ (between 5% and 10%); Percentage cells in apoptosis ([12]; JeKo-1, 24-hour, Late): + (less than 5%); Percentage cells in apoptosis ([12]; JeKo-1, 24-hour, Total): +++ (between 10% and 30%); Percentage cells in apoptosis ([12]; JeKo-1, 48-hour, Early): +++ (between 10% and 30%); Percentage cells in apoptosis ([12]; JeKo-1, 48-hour, Late): +++ (between 10% and 30%); Percentage cells in apoptosis ([12]; JeKo-1, 48-hour, Total): ++++ (between 30% and 50%); Percentage cells in apoptosis ([13]; Early): ++++ (between 30% and 50%); Percentage cells in apoptosis ([13]; Late): ++++ (between 30% and 50%); Percentage cells in apoptosis ([13]; Total): +++++ (more than 50%)
